Measurements: patent US20180228730A1, “USE OF WATER-SOLUBLE POLYMERS BASED ON N-VINYLPYRROLIDONE AND ACRYLIC ACID AS PHARMACEUTICAL ADJUVANTS” (BASF SE, priority 2015, published 2018)
Read-outs that look alike come from different tables or passages of the source.

Legend:
[1] = Release of loperamide from extrudates in demineralized water (release device, UV/VIS); assay type: physicochemical; details: 250 ml demineralized water, 37° C.; spectroscopic detection
Procedure: The active ingredient release from samples 14, 15, 16 and 17 were tested in a release device with automatic spectroscopic measurement (00501FEXXX-D). The extrudates having 5% content of active ingredient were added directly to the release medium at the beginning of the experiment. […] The mixtures were filled into hard gelatine capsules and released therefrom.
Procedure for release (2 hours):
Conditions 0-2 hours: Medium: • 250 ml of demineralized water; • paddle stirrer 50 rpm; • temperature 37° C. • content determination UV/VIS with 1 cm path length cuvette • active ingredient amount 250 mg
The results of the releases are compiled in the following tables and diagrams. The release is complete in all cases.

[2] = demineralized water, 100 mg haloperidol per 250 ml, hard gelatine capsules
Procedure: The release of the active ingredient from the spray-dried polymeric salt was carried out in demineralized water. The initial weight was calculated on 100 mg of haloperidol per 250 ml of release medium. The polymeric salt or the crystalline substance correspondingly weighed out were filled into hard gelatine capsules.

SMILES | Dissolution in the release medium [1] | Release of haloperidol ([2]; 0 min) [%] | Release of haloperidol ([2]; 2 min) [%] | Release of haloperidol ([2]; 4 min) [%] | Release of haloperidol ([2]; 6 min) [%] | Release of haloperidol ([2]; 8 min) [%] | Release of haloperidol ([2]; 10 min) [%] | Release of haloperidol ([2]; 30 min) [%] | Release of haloperidol ([2]; 60 min) [%] | Release of haloperidol ([2]; 120 min) [%]
CN(C)C(=O)C(CCN1CCC(O)(c2ccc(Cl)cc2)CC1)(c1ccccc1)c1ccccc1 [crystalline loperamide (base), loperamide] | no dissolution at all |  |  |  |  |  |  |  |  | 
O=C(CCCN1CCC(O)(c2ccc(Cl)cc2)CC1)c1ccc(F)cc1 [Crystalline haloperidol, haloperidol] |  | 0.0 | 0.1 | 0.2 | 0.3 | 0.4 | 0.6 | 1.5 | 1.8 | 2.3
